Patent US11773071B2, “Benzothiazepine compounds and their use as bile acid modulators” (Albireo AB, priority 2019, dated 2023)

How the values were obtained:
[1] = target: T1, Human IBAT (Homo sapiens, UniProt Q12908); test: IBAT (h/m) assay, human IBAT-overexpressing cells, 3H-taurocholic acid uptake; format: cell-based; conditions: 0.25 μM 3H-taurocholic acid and 5 μM cold taurocholic acid, 20 minutes, read-out: hIBAT IC50
T1 construct: expressed in transfected cells; Puromycin-selected
T1 sequence (Q12908 1-348): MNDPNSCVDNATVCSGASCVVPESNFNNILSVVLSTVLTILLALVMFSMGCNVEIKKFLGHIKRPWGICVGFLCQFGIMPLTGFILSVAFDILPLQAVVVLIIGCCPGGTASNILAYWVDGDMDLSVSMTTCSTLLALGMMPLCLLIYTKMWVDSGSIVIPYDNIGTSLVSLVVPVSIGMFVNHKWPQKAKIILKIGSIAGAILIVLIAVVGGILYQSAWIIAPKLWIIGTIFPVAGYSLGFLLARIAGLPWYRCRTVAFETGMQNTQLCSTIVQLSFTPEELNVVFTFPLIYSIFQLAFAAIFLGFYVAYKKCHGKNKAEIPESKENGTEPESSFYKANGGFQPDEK
How it was run: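 Human or mouse IBAT-overexpressing cells, seeded 48 h before the assay, were incubated 20 min at 37 °C with 0.25 μM 3H-taurocholic acid plus 5 μM cold taurocholic acid and inhibitor (10-point 3-fold series from 10 μM top, 0.2% DMSO final), in duplicate. After ice stop and washes with 1 mM cold taurocholate, uptake was read by scintillation counting.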

[2] = Bidirectional permeability assay (Caco-2 cells); format: in vitro ADME; conditions: human, Caco-2, absorptive direction (A2B), 10 μM in FaSSIF buffer
Protocol: Bidirectional Permeability Assay (Caco-2 Cells)
Caco-2 cells (Evotec) were seeded at a density of 70,000 cells/well in Millicell® 24-well cell culture insert plates and maintained in an incubator (37° C., 5% CO2, 95% RH) for 21 days with media change on alternate days.
Stock solutions (10 mM) of the test compounds, atenolol (low permeability marker), propranolol (high permeability marker) and digoxin (substrate for P-gp transport pathway) were prepared in dimethylsulfoxide (DMSO). An intermediate stock solution (1 mM) was prepared by diluting 10 μL of 10 mM master stock solution with 90 μL of neat DMSO. A working stock solution (10 μM) was prepared by diluting 50 μL of 1 mM with 4950 μL of FaSSIF buffer. Post addition of compounds to the FaSSIF, samples were subjected to sonication for 2 hours, and centrifuged at 4000 RPM for 30 minutes at 37° C. The 4 mL of resultant supernatant was directly used in the assay. The final DMSO concentration in the transport experiments was 1%.
On the day of assay, Caco-2 monolayers were washed twice with transport buffer (HBSS, pH 7.4) and pre-incubated for 30 min (37° C., 5% CO2, 95% RH) in an incubator. The electrical resistance of the monolayers was measured with a Millicell®—ERS system. Monolayers with trans-epithelial electrical resistance (TEER) values greater than 350 ohm·cm^2 were selected for the assay.
The assay was conducted in absorptive direction (A2B) and secretory (B2A) directions. Transport experiments were initiated by addition of transport assay buffer (FaSSIF buffer prepared in HBSS) consisting of compounds to the donor compartment (apical chamber A-B; basolateral chamber B-A) in duplicate (n=2) wells. Drug free HBSS buffer (pH 7.4) containing 1% bovine serum albumin (BSA) was introduced to the receiver (A-B-basolateral; B-A-Apical) compartments. The volumes of apical and basolateral compartments were 0.4 and 0.8 mL, respectively. After adding dosing solution, plates were incubated in an incubator for 120 minutes at 37° C. After 120 minutes, donor and receiver samples were collected and matrix matched (1:1, 30 μL study sample+30 μL blank buffer) with the opposite buffer. Dosing samples matrix matched (1:1, 30 μL study sample+30 μL blank buffer) with the opposite buffer. Samples were processed by adding acetonitrile containing internal standard (60 μL study sample+200 μL acetonitrile containing internal standard—Tolbutamide, 500 ng/mL). Samples were vortexed and centrifuged at 4000 rpm for 10 minutes. The obtained supernatant (100 μL) was diluted with 100 μL of water and transferred to fresh 96 well plates. The concentration of compounds in the samples was analyzed by liquid chromatography tandem mass spectrometry (LC-MS/MS) method using discovery grade bio-analytical method, as applicable.
The mean apparent permeability (Papp,×10^−6 cm/sec) of the test compounds, atenolol, propranolol and digoxin were calculated as follows:
[formula] where dq/dt=rate of transport (rate of transport of compound in the receiver compartment), C0=initial concentration in the donor compartment, A=surface area of the effective filter membrane.

IC50 [1] [nM] | Papp A→B at 120 min, 10 μM [2] [×10⁻⁶ cm/s] | Structure (SMILES)
3 | 17.6 | CCCCC1(CC)CN(c2ccccc2)c2cc(N(C)C)c(OCCC(=O)O)cc2S(=O)(=O)C1 (racemic) [Example 16, 3-((3-Butyl-7-(dimethylamino)-3-ethyl-1,1-dioxido-5-phenyl-2,3,4,5-tetrahydro-1,5-benzothiazepin-8-yl)oxy)propanoic acid]
2 | 16.5 | CCCCC1(CC)CN(c2ccccc2)c2cc(N(C)C)c(OCCC(=O)O)cc2S(=O)(=O)C1 (single isomer, unassigned) [Example 17, 3-((3-butyl-7-(dimethylamino)-3-ethyl-1,1-dioxido-5-phenyl-2,3,4,5-tetrahydro-1,5-benzothiazepin-8-yl)oxy)propanoic acid]
